Test results taken from ChEMBL document CHEMBL4219155, “Structure-based drug design of 1,3,6-trisubstituted 1,4-diazepan-7-ones as selective human kallikrein 7 inhibitors” (Bioorg Med Chem Lett, 2018).
pIC50: −log10 of the molar value.

Key:
Kallikrein-7 = Kallikrein-7 (Homo sapiens, UniProt P49862); assay: Inhibition of recombinant human KLK7 using MOCAc-Arg-Pro-Lys-Pro-Val-Glu-Nva-Trp-Arg-Lys(Dnp)-NH2 as substrate preincubated for 10 mins followed by substrate addition measured after 30 mins by fluorescence assay
Sequence of Kallikrein-7 (P49862 whole entry): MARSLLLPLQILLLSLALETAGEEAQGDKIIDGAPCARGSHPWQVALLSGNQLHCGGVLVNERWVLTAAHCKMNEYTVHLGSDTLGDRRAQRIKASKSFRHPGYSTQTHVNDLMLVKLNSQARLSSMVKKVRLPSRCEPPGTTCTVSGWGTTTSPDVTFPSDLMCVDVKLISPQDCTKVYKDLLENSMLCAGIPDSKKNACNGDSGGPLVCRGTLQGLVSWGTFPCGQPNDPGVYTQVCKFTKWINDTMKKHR

Kallikrein-5 = target: T1, Kallikrein-5 (Homo sapiens, UniProt Q9Y337); assay: Inhibition of recombinant human KLK5 using Boc-Val-Pro-Arg-MCA as substrate preincubated for 10 mins followed by substrate addition measured after 30 mins by fluorescence assay
T1 sequence (Q9Y337 whole entry): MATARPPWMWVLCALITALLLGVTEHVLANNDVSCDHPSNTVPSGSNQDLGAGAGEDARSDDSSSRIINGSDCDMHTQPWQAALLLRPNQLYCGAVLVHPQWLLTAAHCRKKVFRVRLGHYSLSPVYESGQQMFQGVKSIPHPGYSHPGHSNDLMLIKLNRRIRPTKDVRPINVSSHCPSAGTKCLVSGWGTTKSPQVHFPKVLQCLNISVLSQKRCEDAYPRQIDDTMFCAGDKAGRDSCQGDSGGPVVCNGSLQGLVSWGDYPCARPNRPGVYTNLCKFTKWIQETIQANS

[1] = Inhibition of human chymotrypsin using Suc-Ala-Ala-Pro-Phe-MCA as substrate preincubated for 10 mins followed by substrate addition measured after 30 mins by fluorescence assay
Trypsin = Trypsin (Homo sapiens, UniProt P07477+P07478+P35030); assay: Inhibition of human trypsin using Boc-Gln-Ala-Arg-MCA as substrate preincubated for 10 mins followed by substrate addition measured after 30 mins by fluorescence assay; assay type: protein assay

| Structure (SMILES) | pIC50 (Kallikrein-7) | pIC50 (Kallikrein-5) | pIC50 [1] | IC50 (Trypsin) |
| --- | --- | --- | --- | --- |
| COc1ccc(Cl)cc1C[C@@H]1CN/C(=N\N(C)C)CN(CC(=O)Nc2cccc(C#N)c2)C1=O | 5.28 | – | – | – |
| COc1ccc(Cl)cc1C[C@@H]1CN/C(=N\N(C)C)CN(CC(=O)Nc2cccc(C(F)(F)F)c2)C1=O | 5.37 | – | – | – |
| COc1ccc(Cl)cc1C[C@@H]1CN/C(=N\N(C)C)CN(CC(=O)Nc2cccc(S(=O)(=O)C(F)(F)F)c2)C1=O | 5.41 | – | – | – |
| COc1ccc(Cl)cc1C[C@@H]1CN/C(=N\N(C)C)CN(CC(=O)Nc2cccc(-c3cccs3)c2)C1=O | 6.06 | – | – | – |
| COc1ccc(Cl)cc1C[C@@H]1CN/C(=N\N(C)C)CN(CC(=O)Nc2cccc(-c3ccsc3)c2)C1=O | 5.82 | – | – | – |
| COc1ccc(Cl)cc1C[C@@H]1CN/C(=N\N(C)C)CN(CC(=O)Nc2cccc(C(=O)N(C)C)c2)C1=O | 5.60 | – | – | – |
| COc1ccc(Cl)cc1C[C@@H]1CN/C(=N\N(C)C)CN(CC(=O)Nc2cccc(-c3ccoc3)c2)C1=O | 6.17 | – | – | – |
| CNC(=O)c1cccc(NC(=O)CN2C/C(=N/N(C)C)NC[C@@H](Cc3cc(Cl)ccc3OC)C2=O)c1 | 6.03 | – | – | – |
| COc1cccc(NC(=O)CN2C/C(=N/N(C)C)NC[C@@H](Cc3cc(Cl)ccc3OC)C2=O)c1 | 5.57 | – | – | – |
| COc1ccc(Cl)cc1C[C@@H]1CN/C(=N\N(C)C)CN(CC(=O)Nc2cccc(S(=O)(=O)N(C)C)c2)C1=O | 6.00 | – | – | – |
| COc1ccc(Cl)cc1C[C@@H]1CN/C(=N\N(C)C)CN(CC(=O)Nc2cccc(-c3ccco3)c2)C1=O | 6.23 | – | – | – |

Now from value to compound:

| pIC50 (Kallikrein-7) | pIC50 (Kallikrein-5) | pIC50 [1] | IC50 (Trypsin) | Structure (SMILES) |
| --- | --- | --- | --- | --- |
| 7.32 | < 4.52 | 5.89 | > 30000 nM | CCC[C@@H](C(=O)Nc1cccc(-c2cnn(C)c2)c1)N1C/C(=N/N(C)C)NC[C@@H](Cc2cc(Cl)ccc2OC)C1=O |
| 6.28 | < 4.52 | < 4.52 | > 30000 nM | COc1ccc(Cl)cc1C[C@@H]1CN/C(=N\N(C)C)CN(CC(=O)Nc2cccc(-c3cnn(C)c3)c2)C1=O |
| 7.24 | < 4.52 | 5.51 | > 30000 nM | COc1ccc(Cl)cc1C[C@@H]1CN/C(=N\N(C)C)CN([C@@H](C)C(=O)Nc2cccc(-c3cnn(C)c3)c2)C1=O |
| 5.39 | – | – | – | CCCC[C@H](C(=O)Nc1cccc(-c2cnn(C)c2)c1)N1C/C(=N/N(C)C)NC[C@@H](Cc2cc(Cl)ccc2OC)C1=O |
| 6.96 | – | – | – | CCCC[C@@H](C(=O)Nc1cccc(-c2cnn(C)c2)c1)N1C/C(=N/N(C)C)NC[C@@H](Cc2cc(Cl)ccc2OC)C1=O |
| 5.55 | – | – | – | CC[C@H](C(=O)Nc1cccc(-c2cnn(C)c2)c1)N1C/C(=N/N(C)C)NC[C@@H](Cc2cc(Cl)ccc2OC)C1=O |
| 6.04 | – | – | – | COc1ccc(Cl)cc1C[C@@H]1CN/C(=N\N(C)C)CN([C@H](C)C(=O)Nc2cccc(-c3cnn(C)c3)c2)C1=O |
| 6.35 | – | – | – | CC[C@@H](C(=O)Nc1cccc(-c2cnn(C)c2)c1)N1C/C(=N/N(C)C)NC[C@@H](Cc2cc(Cl)ccc2OC)C1=O |
| 5.15 | – | – | – | CCC[C@H](C(=O)Nc1cccc(-c2cnn(C)c2)c1)N1C/C(=N/N(C)C)NC[C@@H](Cc2cc(Cl)ccc2OC)C1=O |
